Where “and” joins values, the source holds several entries; their conditions need not be identical. Equal entries are not always repeated.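 96-well plates; 48 h exposure; 5 concentrations. Endpoints by linear interpolation between flanking doses. Not reached: highest tested concentration assigned. Abbreviation: GI50, concentration required for 50% inhibition of growth. TGI: concentration producing complete growth inhibition.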
Assays:
Assay in all cases: DTP human tumour cell line panel, 48 h
BT-549 breast = test system: BT-549 breast
OVCAR-5 ovarian = test system: OVCAR-5 ovarian
HT29 colon = test system: HT29 colon
HL-60(TB) leukemia = test system: HL-60(TB) leukemia
PC-3 prostate = test system: PC-3 prostate
NCI-H522 lung = test system: NCI-H522 lung
UO-31 renal = test system: UO-31 renal
ACHN renal = test system: ACHN renal
SF-268 CNS = test system: SF-268 CNS
EKVX NSCLC = test system: EKVX NSCLC

COc1ccc(C(=O)CC(Cl)=C(Cl)Cl)cc1
GI50 (BT-549 breast): 21.6 µM
TGI (BT-549 breast): 57.3 µM
GI50 (OVCAR-5 ovarian): 22.6 µM
TGI (OVCAR-5 ovarian): 50.4 µM
GI50 (HT29 colon): 22 µM
TGI (HT29 colon): 83.5 µM
GI50 (HL-60(TB) leukemia): 34.2 µM
TGI (HL-60(TB) leukemia): 95 µM
GI50 (PC-3 prostate): 26.7 µM
TGI (PC-3 prostate): > 100 µM
GI50 (NCI-H522 lung): 34.3 µM
TGI (NCI-H522 lung): 81.5 µM
GI50 (UO-31 renal): 25.8 µM
TGI (UO-31 renal): 54.7 µM
GI50 (ACHN renal): 20.1 µM
TGI (ACHN renal): 41.4 µM
GI50 (SF-268 CNS): 38.2 µM
TGI (SF-268 CNS): > 100 µM
GI50 (EKVX NSCLC): 28.5 µM
TGI (EKVX NSCLC): > 100 µM

C=C1C(=O)O[C@H]2[C@H]1CC/C(Cn1cc(CNC(=O)c3cc4ccccc4[nH]3)nn1)=C\CC[C@@]1(C)O[C@@H]21
GI50 (BT-549 breast): 4.09 µM
TGI (BT-549 breast): 16.5 µM
GI50 (OVCAR-5 ovarian): 2.51 µM
TGI (OVCAR-5 ovarian): 9.07 µM
GI50 (HT29 colon): 2.85 µM
TGI (HT29 colon): 10.1 µM
GI50 (HL-60(TB) leukemia): 2.45 µM
TGI (HL-60(TB) leukemia): 5.79 µM
GI50 (PC-3 prostate): 1.88 µM
TGI (PC-3 prostate): 4.79 µM
GI50 (NCI-H522 lung): 0.921 µM
TGI (NCI-H522 lung): 2.84 µM
GI50 (UO-31 renal): 10.4 µM
TGI (UO-31 renal): 22.1 µM
GI50 (ACHN renal): 4.73 µM
TGI (ACHN renal): 17.2 µM
GI50 (SF-268 CNS): 7.26 µM
TGI (SF-268 CNS): 22.5 µM
GI50 (EKVX NSCLC): 13.2 µM
TGI (EKVX NSCLC): 30.2 µM

O=C(/C=C/CN1CCCCC1)Nc1cc2c(Nc3ccc(F)c(Cl)c3F)ncnc2cc1OCCOC(F)F
GI50 (BT-549 breast): 1.97 µM
TGI (BT-549 breast): 8.62 µM
GI50 (OVCAR-5 ovarian): 0.406 µM
TGI (OVCAR-5 ovarian): 13.6 µM
GI50 (HT29 colon): 0.919 µM
TGI (HT29 colon): 5.77 µM
GI50 (HL-60(TB) leukemia): 1.4 µM
TGI (HL-60(TB) leukemia): 5.68 µM
GI50 (PC-3 prostate): 1.68 µM
TGI (PC-3 prostate): 8.43 µM
GI50 (NCI-H522 lung): 0.0493 µM
TGI (NCI-H522 lung): 1.8 µM
GI50 (UO-31 renal): < 0.0116 µM
TGI (UO-31 renal): 5.89 µM
GI50 (ACHN renal): < 0.01 µM
TGI (ACHN renal): 1.55 µM
GI50 (SF-268 CNS): 1.14 µM
TGI (SF-268 CNS): 4.59 µM
GI50 (EKVX NSCLC): 0.0646 µM
TGI (EKVX NSCLC): 5.22 µM

COc1cc2c(c(OC)c1OC)-c1c(c3ccc([N+](=O)[O-])cc3c(=O)n1CCCN=[N+]=[N-])C2=O
GI50 (BT-549 breast): 47.5 µM
TGI (BT-549 breast): > 100 µM
GI50 (OVCAR-5 ovarian): > 100 µM
TGI (OVCAR-5 ovarian): > 100 µM
GI50 (HT29 colon): 94 µM
TGI (HT29 colon): > 100 µM
GI50 (HL-60(TB) leukemia): > 100 µM
TGI (HL-60(TB) leukemia): > 100 µM
GI50 (PC-3 prostate): > 100 µM
TGI (PC-3 prostate): > 100 µM
GI50 (NCI-H522 lung): 0.251 µM
TGI (NCI-H522 lung): 5.71 µM
GI50 (UO-31 renal): 4.92 µM
TGI (UO-31 renal): 72.5 µM
GI50 (ACHN renal): 14.1 µM
TGI (ACHN renal): 39.6 µM
GI50 (SF-268 CNS): 14.4 µM
TGI (SF-268 CNS): 80.7 µM
GI50 (EKVX NSCLC): > 100 µM
TGI (EKVX NSCLC): > 100 µM

CC1SC(c2cccc(Oc3ccccc3)c2)N(CCc2cccs2)C1=O (configuration not stated)
GI50 (BT-549 breast): 1.04 µM
TGI (BT-549 breast): 2.4 µM
GI50 (OVCAR-5 ovarian): 1.94 µM
TGI (OVCAR-5 ovarian): 5.89 µM
GI50 (HT29 colon): 1.08 µM
TGI (HT29 colon): 2.93 µM
GI50 (HL-60(TB) leukemia): 1.17 µM
TGI (HL-60(TB) leukemia): 6.56 µM
GI50 (PC-3 prostate): 0.595 µM
TGI (PC-3 prostate): 3.37 µM
GI50 (NCI-H522 lung): 0.717 µM
TGI (NCI-H522 lung): 2.12 µM
GI50 (UO-31 renal): 0.469 µM
TGI (UO-31 renal): 1.9 µM
GI50 (ACHN renal): 1.14 µM
TGI (ACHN renal): 4.97 µM
GI50 (SF-268 CNS): 1.18 µM
TGI (SF-268 CNS): 3.6 µM
GI50 (EKVX NSCLC): 0.368 µM
TGI (EKVX NSCLC): 1.92 µM

Nc1nc(N)c2nn(-c3ccc(C(=O)O)cc3)nc2n1
TGI (BT-549 breast): > 100 µM
TGI (OVCAR-5 ovarian): > 100 µM
TGI (HT29 colon): > 100 µM
TGI (HL-60(TB) leukemia): > 100 µM
TGI (PC-3 prostate): > 100 µM
TGI (NCI-H522 lung): > 100 µM
TGI (UO-31 renal): > 100 µM
TGI (ACHN renal): > 100 µM
TGI (SF-268 CNS): > 100 µM
TGI (EKVX NSCLC): > 100 µM

CC(=O)OC1C(OC/C2=C/C3[C@@H](C(C)C)CC=C(C)[C@@H]3CC(OC(=O)/C=C/c3cn(C)cn3)[C@]3(C)C=C[C@@]2(O)O3)OCC(O)C1O (some centres not stated)
GI50 (BT-549 breast): 0.0129 µM
TGI (BT-549 breast): 0.136 µM
GI50 (OVCAR-5 ovarian): 0.0207 µM
GI50 (HT29 colon): 0.0124 µM
TGI (HT29 colon): > 50 µM
GI50 (HL-60(TB) leukemia): 0.0164 µM
TGI (HL-60(TB) leukemia): 1.51 µM
GI50 (PC-3 prostate): 0.0271 µM
TGI (PC-3 prostate): > 50 µM
GI50 (NCI-H522 lung): 0.015 µM
GI50 (UO-31 renal): 1.13 µM
TGI (UO-31 renal): > 50 µM
GI50 (ACHN renal): 0.381 µM
TGI (ACHN renal): > 50 µM
GI50 (SF-268 CNS): 0.0336 µM
TGI (SF-268 CNS): > 50 µM
GI50 (EKVX NSCLC): 0.0707 µM
TGI (EKVX NSCLC): > 50 µM

C[CH2][Ge]1([CH2]C)[CH2]CC2(CCN(CCCN(C)C)C2)C[CH2]1
GI50 (BT-549 breast): 1.69 µM
TGI (BT-549 breast): 3.23 µM
GI50 (OVCAR-5 ovarian): 1.84 µM and 2.45 µM
TGI (OVCAR-5 ovarian): 3.8 µM and 5.19 µM
GI50 (HT29 colon): 0.4 µM and 2.24 µM
TGI (HT29 colon): 1.59 µM and 6.05 µM
GI50 (HL-60(TB) leukemia): 0.312 µM and 1.21 µM
TGI (HL-60(TB) leukemia): 1.61 µM and 1.79 µM
GI50 (PC-3 prostate): 1.8 µM
TGI (PC-3 prostate): 4.44 µM and 1.34 µM
GI50 (NCI-H522 lung): 1.3 µM and 11.2 µM
TGI (NCI-H522 lung): 2.88 µM and 24.4 µM
GI50 (UO-31 renal): 1.22 µM and 1.91 µM
TGI (UO-31 renal): 2.48 µM and 3.68 µM
GI50 (ACHN renal): 1.84 µM and 1.7 µM
TGI (ACHN renal): 3.66 µM and 3.95 µM
GI50 (SF-268 CNS): 1.81 µM
TGI (SF-268 CNS): 3.96 µM
GI50 (EKVX NSCLC): 1.7 µM and 2.33 µM
TGI (EKVX NSCLC): 6.56 µM and 4.44 µM

CCCCCCCCCCCCOC1C(C(COC2OC(C(O)CO)C3OC(C)(C)OC23)OC(=O)Nc2ccc([N+](=O)[O-])cc2)OC2OC(C)(C)OC21 (configuration not stated)
GI50 (BT-549 breast): 1.9 µM
TGI (BT-549 breast): 5.57 µM
GI50 (OVCAR-5 ovarian): 5.41 µM
TGI (OVCAR-5 ovarian): 19.1 µM
GI50 (HT29 colon): 2.57 µM
TGI (HT29 colon): 7.94 µM
GI50 (HL-60(TB) leukemia): 3.36 µM
TGI (HL-60(TB) leukemia): 8.92 µM
GI50 (PC-3 prostate): 2.42 µM
TGI (PC-3 prostate): 5.63 µM
GI50 (NCI-H522 lung): 1.92 µM
TGI (NCI-H522 lung): 3.9 µM
GI50 (UO-31 renal): 3.62 µM
TGI (UO-31 renal): 12.9 µM
GI50 (ACHN renal): 3.4 µM
TGI (ACHN renal): 10.6 µM
GI50 (SF-268 CNS): 7.34 µM
TGI (SF-268 CNS): 22.1 µM
GI50 (EKVX NSCLC): 2.34 µM
TGI (EKVX NSCLC): 6.21 µM

COc1ccc(N2CCN(CC(=O)N3CCN(c4nnc(-c5ccc(Cl)cc5)c(-c5ccc(Cl)cc5)n4)CC3)CC2)cc1
GI50 (BT-549 breast): 4.83 µM
TGI (BT-549 breast): > 100 µM
GI50 (OVCAR-5 ovarian): > 100 µM
TGI (OVCAR-5 ovarian): > 100 µM
GI50 (HT29 colon): 4.03 µM
TGI (HT29 colon): 43.2 µM
GI50 (HL-60(TB) leukemia): 14.3 µM
TGI (HL-60(TB) leukemia): > 100 µM
GI50 (PC-3 prostate): 6.56 µM
TGI (PC-3 prostate): > 100 µM
GI50 (NCI-H522 lung): 9.2 µM
TGI (NCI-H522 lung): > 100 µM
GI50 (UO-31 renal): 2.8 µM
TGI (UO-31 renal): > 100 µM
GI50 (ACHN renal): 6.42 µM
TGI (ACHN renal): 55.6 µM
GI50 (SF-268 CNS): > 100 µM
TGI (SF-268 CNS): > 100 µM
GI50 (EKVX NSCLC): > 100 µM
TGI (EKVX NSCLC): > 100 µM

N#Cc1ccccc1C#C/C=C\C#Cc1cnccn1
GI50 (BT-549 breast): 35.4 µM
TGI (BT-549 breast): > 100 µM
GI50 (OVCAR-5 ovarian): 6.09 µM
TGI (OVCAR-5 ovarian): > 49.9 µM
GI50 (HT29 colon): 8.72 µM
TGI (HT29 colon): > 100 µM
GI50 (HL-60(TB) leukemia): 3.23 µM
TGI (HL-60(TB) leukemia): > 24.1 µM
GI50 (PC-3 prostate): 30.9 µM
TGI (PC-3 prostate): > 100 µM
GI50 (NCI-H522 lung): 18 µM
TGI (NCI-H522 lung): > 65.9 µM
GI50 (UO-31 renal): 44 µM
TGI (UO-31 renal): > 100 µM
GI50 (ACHN renal): 32.9 µM
TGI (ACHN renal): 98.7 µM
GI50 (SF-268 CNS): 48.9 µM
TGI (SF-268 CNS): > 100 µM
GI50 (EKVX NSCLC): 44.1 µM
TGI (EKVX NSCLC): > 100 µM

CC(C)(O)C1CC(=O)C(C)(C2C(O)CC3(C)C4CC=C5C(CCC(O)C5(C)C)C4(C)C(=O)CC23C)O1 (configuration not stated)
TGI (BT-549 breast): > 100 µM
TGI (OVCAR-5 ovarian): > 100 µM
TGI (HT29 colon): > 100 µM
TGI (PC-3 prostate): > 100 µM
TGI (NCI-H522 lung): > 100 µM
TGI (UO-31 renal): > 100 µM
TGI (ACHN renal): > 100 µM
TGI (SF-268 CNS): > 100 µM
TGI (EKVX NSCLC): > 100 µM

Source: PubChem BioAssay (NCI)
